Experimental data taken from article PMC4638363, “Linear Interaction Energy Based Prediction of Cytochrome P450 1A2 Binding Affinities with Reliability Estimation” (PLoS ONE, 2015).
Like-named read-outs stand apart in the source and are kept apart here.

What was measured:
[1] = system: recombinant CYP 1A2; details: for ΔGbind^Obs: from literature IC50, Source 3
[2] = molecular target: T1, human CYP 1A2 (Homo sapiens, UniProt P05177)
T1 sequence (P05177 1-516): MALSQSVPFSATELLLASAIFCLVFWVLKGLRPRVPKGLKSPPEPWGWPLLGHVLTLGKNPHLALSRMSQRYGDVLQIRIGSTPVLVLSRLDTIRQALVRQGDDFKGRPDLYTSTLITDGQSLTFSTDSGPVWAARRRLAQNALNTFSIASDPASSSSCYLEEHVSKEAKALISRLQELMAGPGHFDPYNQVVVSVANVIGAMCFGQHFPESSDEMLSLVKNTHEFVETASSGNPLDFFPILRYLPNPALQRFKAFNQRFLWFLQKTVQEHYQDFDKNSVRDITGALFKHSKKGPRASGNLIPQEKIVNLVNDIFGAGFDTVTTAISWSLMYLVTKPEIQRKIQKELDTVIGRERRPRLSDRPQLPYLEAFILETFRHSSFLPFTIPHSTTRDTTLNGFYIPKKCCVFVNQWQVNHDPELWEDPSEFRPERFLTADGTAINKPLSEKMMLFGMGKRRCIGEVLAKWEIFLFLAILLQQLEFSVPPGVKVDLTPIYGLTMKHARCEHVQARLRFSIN

[3] = system: recombinant CYP 1A2; details: cited from earlier work
[4] = system: recombinant CYP 1A2
[5] = system: CYP 1A2; details: Table A, Source 1; ref Bayer HealthCare databases for CYP inhibition (eTOX); cited from earlier work
[6] = molecular target: T1, human CYP 1A2; test: in-house CYP 1A2 inhibition assay with 7-methoxyresorufin as substrate (resorufin fluorescence); details: for ΔΔG bind: difference in ΔG bind between literature and in-house determined values; for ΔG bind (inhouse): from in-house IC50 via Cheng-Prusoff and RTln(Ki)
[7] = system: CYP 1A2
[8] = system: CYP 1A2; details: read-out: IC 50 (lit); Source 2, recombinant CYPs, phenacetin O-deethylation; cited from earlier work
[9] = system: CYP 1A2; details: literature; cited from earlier work
[10] = Table A, Source 3, ref Korhonen et al., J. Med. Chem. 2005
[11] = read-out: IC 50 (lit), Source 3, recombinant CYP 1A2, 7-ethoxyresorufin O-dealkylation

CCCCC1CCCCC1 [Compound 68, Butylcyclohexane]
ΔGbind^Obs ([1]; training set): -6.26 kcal/mol
Residual (ΔGbind^Obs—ΔGbind^Calc) ([2]; training set): 0.526 kcal/mol
IC50 [3, 10]: 55 µM

Cc1ccc2cccc(C)c2c1 [Compound 41, 1,7-Dimethylnaphthalene]
Residual (ΔGbind^Obs–ΔG bind ^Calc), error in prediction ([2]; test set): -1.46 kcal/mol
ΔGbind^Obs ([4]; human): -7.46 kcal/mol
IC50 [3, 10]: 7.5 µM

CCc1ccc2ccccc2c1 [Compound 31, 2-Ethylnaphthalene]
Residual (ΔGbind^Obs–ΔG bind ^Calc), error in prediction ([2]; test set): -0.789 kcal/mol
ΔGbind^Obs ([4]; human): -6.91 kcal/mol
IC50 [3, 10]: 19 µM

COC1=CC(=O)OC1 [Compound 71, 4-Methoxyfuran-2-(5H)-one]
ΔGbind^Obs ([1]; test set): -2.32 kcal/mol
Residual (ΔGbind^Obs–ΔG bind ^Calc), error in prediction ([2]; test set): 1.34 kcal/mol
IC50 [3]: 40000 µM

Cc1cnc2ccccc2c1 [Compound 45, 3-Methylquinoline]
IC50 [3, 10]: 13 µM

Cc1ccc2c(C)cccc2c1 [Compound 40, 1,6-Dimethylnaphthalene]
Residual (ΔGbind^Obs–ΔG bind ^Calc), error in prediction ([2]; test set): -0.454 kcal/mol
ΔGbind^Obs ([4]; human): -6.74 kcal/mol
IC50 [3, 10]: 25 µM

Cc1cc(C)c2ccccc2n1 [Compound 46, 2-4-Dimethylquinoline]
IC50 [3]: 2.4 µM

CCCCc1ccccc1 [Compound 69, Butylbenzene]
Residual (ΔGbind^Obs–ΔG bind ^Calc), error in prediction ([2]; test set): 1.43 kcal/mol
ΔGbind^Obs ([4]; human): -3.75 kcal/mol
IC50 [3, 10]: 3700 µM

Cc1cccc2c(C)cccc12 [Compound 39, 1,5-Dimethylnaphthalene]
Residual (ΔGbind^Obs–ΔG bind ^Calc), error in prediction [2]: -0.478 kcal/mol
ΔGbind^Obs ([4]; human): -6.43 kcal/mol
IC50 [3]: 42 µM

Clc1ccccc1C(c1ccccc1)(c1ccccc1)n1ccnc1 [Compound 22, Clotrimazole]
IC50 [5]: 5.83 µM

Cc1ccc(CCN)cc1 [Compound 12, p-tolylethylamine]
ΔG bind (lit) ([1]; from literature IC50, Source 3 (Ref. 25)): -7.07 ± 0.12 kcal/mol
ΔGbind^Obs ([1]; test set): -7.07 kcal/mol
Residual (ΔGbind^Obs–ΔG bind ^Calc), error in prediction ([2]; test set): -1.53 kcal/mol
ΔΔG bind [6]: -1.27 kcal/mol
ΔG bind (inhouse) [6]: -5.81 ± 0.17 kcal/mol
IC50 ([6]; read-out: IC 50 (inhouse), 7-methoxyresorufin at Km 2.5 μM, triplicate): 120 ± 33 µM
IC50 [3, 11]: 14 ± 2.5 µM

c1ccc2c(c1)CCO2 [Compound 62, 2,3-Dihydrobenzofuran]
ΔGbind^Obs ([1]; training set): -4.42 kcal/mol
Residual (ΔGbind^Obs—ΔGbind^Calc) ([2]; training set): -0.096 kcal/mol
IC50 [3, 10]: 1200 µM

O=c1[nH]c2ccccc2o1 [Compound 64, 2-Benzoxazolinone]
Residual (ΔGbind^Obs—ΔGbind^Calc) ([2]; training set): 0.19 kcal/mol
ΔGbind^Obs ([4]; human): -5.11 kcal/mol
IC50 [3, 10]: 370 µM

c1ccc2c(c1)CCC2 [Compound 63, Indan]
ΔGbind^Obs ([4]; human): -4.88 kcal/mol
IC50 [3]: 550 µM

Oc1cccc2ccccc12 [Compound 9, 1-naphthol]
Residual (ΔGbind^Obs–ΔG bind ^Calc), error in prediction [2]: -2.77 kcal/mol
ΔG bind (lit) ([4]; human): -7.96 ± 0.14 kcal/mol
ΔGbind^Obs ([4]; human): -7.96 kcal/mol
IC50 [6]: 2 ± 0.7 µM
ΔΔG bind [6]: 0.287 kcal/mol
ΔG bind (inhouse) [6]: -8.25 ± 0.22 kcal/mol
IC50 [3, 11]: 3.2 ± 0.8 µM

C#C[C@]1(O)CC[C@H]2[C@@H]3CCC4=Cc5oncc5C[C@]4(C)[C@H]3CC[C@@]21C [Compound 21, Danazol]
IC50 [5]: 45.3 µM

c1ccc2ccccc2c1 [Compound 27, Naphthalene]
ΔGbind^Obs ([1]; training set): -4.73 kcal/mol
Residual (ΔGbind^Obs—ΔGbind^Calc) [2]: -0.55 kcal/mol
IC50 [3, 10]: 700 µM

COc1ccc(C=O)cc1 [Compound 11, p-methoxybenzaldehyde]
Residual (ΔGbind^Obs–ΔG bind ^Calc), error in prediction [2]: -0.43 kcal/mol
ΔG bind (lit) [4]: -5.31 ± 0.19 kcal/mol
ΔGbind^Obs [4]: -5.31 kcal/mol
ΔΔG bind [6]: -0.239 kcal/mol
ΔG bind (inhouse) [6]: -5.07 ± 0.048 kcal/mol
IC50 ([6]; read-out: IC 50 (inhouse)): 410 ± 32 µM
IC50 [3, 11]: 270 ± 85 µM

O=c1cc(-c2ccccc2)oc2c1ccc1ccccc12 [Compound 7, alpha-Naphthoflavone]
Reported inhibition mechanism [9]: Competitive/uncompetitive^65

CN1C(=O)CC[C@H]1c1cccnc1 [Compound 73, Cotinine]
ΔGbind^Obs ([1]; training set): -3.51 kcal/mol
Residual (ΔGbind^Obs—ΔGbind^Calc) ([2]; training set): 1.84 kcal/mol
IC50 [3, 10]: 5400 µM

Fc1ccc2ccccc2c1 [Compound 32, 2-Fluoronaphthalene]
ΔGbind^Obs ([1]; training set): -6.33 kcal/mol
Residual (ΔGbind^Obs—ΔGbind^Calc) ([2]; training set): -1.34 kcal/mol
IC50 [3, 10]: 49 µM

CCC1CCC(=O)O1 (stereo not shown) [Compound 52, γ-Caprolactone]
Residual (ΔGbind^Obs—ΔGbind^Calc) [2]: 0.956 kcal/mol
ΔGbind^Obs ([4]; human): -3.15 kcal/mol
IC50 [3]: 9900 µM
